The text below walks through data of patent US5360796A, “Imidazo[1,2-a]pyridinylalkyl phosphonic acid compounds for treatment of neurotoxic injury” (G. D. Searle & Co., priority 1991, dated 1994).

Structures are written as SMILES.

As usually defined, the Ki is the dissociation constant of the complex between target and ligand, obtained from inhibition or displacement. One may read the TD50 as the dose at which the toxic effect under study appears in half of the subjects. Read a high TD50 as lower toxicity.

Data set [1] addresses NMDA receptor. As to the kind of experiment: NMDA-Selective Glutamate Binding Assay (L-[3H]glutamate). Also on record: species or system rat. Conditions: 12.5 nM L-[3H]glutamate, synaptic plasma membranes, pH 7.4, 0-4° C., 10 min; read-out: NMDA Receptor Binding Data, Ki IC50 Binding NMDA. As to the method:
Synaptic plasma membranes (SPM) were prepared as previously described [Monahah, J. B. and Michel, J., "Identification and Characterization of an N-methyl-D-aspartate-specific L[^3 H]glutamate Recognition Site in Synaptic Plasma Membranes, J. Neurochem., 48, 1699-1708 (1987)]. The SPM were stored at a concentration of 10-15 mg/ml in 0.32M sucrose, 0.5 mM EDTA, 1 mM MgSO4, 5 mM Tris/SO4, pH 7.4, under liquid nitrogen. The identity and purity of the subcellular fractions were confirmed by both electron microscopy and marker enzymes. Protein concentrations were determined by using a modification of the method of Lowry [Ohnishi, S. T. and Barr, J. K., "A Simplified Method of Quantitating Proteins using the Biuret and Phenol Reagents", Anal. Biochem., 86, 193-197 (1978)]. The SPM were treated identically for the [^3 H]AMPA (QUIS), [^3 H]kainate and sodium-dependent L-[^3 H]-glumatate binding assays. The SPM were thawed at room temperature, diluted twenty-fold with 50mM Tris/acetate, pH 7.4, incubated at 37° C. for 30 minutes, and centrifuged at 100,000 g for 15 minutes. The dilution, incubation, and centrifugation was repeated a total of three times. Prior to use in the NMDA-specific L-[^3 H]-glutamate binding assay the SPM were thawed, diluted twenty fold with 50 mM Tris/acetate, pH 7.4 containing 0.04% (v/v) Triton X-100, incubated for 30 minutes at 37° C. and centrifuged as described above. The Triton X-100 treated membranes were washed with 50 mM Tris/acetate, pH 7.4 and centrifuged at 100,000 g for 15 minutes a total of four times. […] The basic procedure for the receptor subclass binding assays was similar. This general method involved adding the radioligand (12.5 nM L-[^3 H] glutamate; 0.5 nM [^3 H]kainate or 10 nM [^3 H]AMPA) to the appropriate concentration of the test compound and initiating the assay by the addition of ice cold synaptic plasma membranes (0.2-0.45 mg). The binding assays were performed in 1.5 mL centrifuge tubes with the total volume adjusted to 1.0 mL. Additions of test compounds were made in 50 mM Tris/acetate, pH 7.4 and incubations were carried out at 0°-4° C. The incubation time for the NMDA and the AMPA binding assays was 10 minutes, for the kainate binding assay 60 minutes and for the sodium-dependent glutamate binding assay 15 minutes. The AMPA binding assay contained 100 mM KSCN and the sodium-dependent glutamate binding assay contained 150 mM sodium acetate in addition to the previously described reagents. To terminate the incubation, the samples were centrifuged for 15 minutes at 12,000 g and 4° C. in a Beckman Microfuge 12. The supernatant was aspirated and the pelleted membranes dissolved in Beckman BTS-450 tissue solubilizer for a minimum of 6 hours at room temperature. Beckman MP scintillation cocktail containing 7 mL/1 acetic acid was then added and the samples counted on a Beckman LS 5800 or 3801 liquid scintillation counter with automatic corrections for quenching and counting efficiency. Nonspecific binding was defined as the residual binding in the presence of either excess L-glutamate (0.1-0.4 mM), kainate (0.01 mM), or NMDA (0.5 mM), and was 15-25% of the total binding in the NMDA binding assay, 19-27% in the AMPA binding assay, 20-30% in the kainate binding assay and 10-15% in the sodium-dependent binding assay. Radioligand binding to the synaptic plasma membranes was analyzed using Scatchard and Hill transformations and the Ki values of the compounds determined using logit-log transformations. Calculations and regression analysis were performed using templates developed for Lotus 1, 2, 3 as previously described [Pullan, L. M. "Automated Radioligand Receptor Binding Analysis with Templates for Lotus", Computer Appln. Biosci., 3, 131 (1987)]. Binding results are reported in Table I for example compounds of the invention.

The test system of data set [2] is CA1 region of the hippocampus. The experiment in a line: Forebrain Ischemia Assay. The class given is in vivo, Mongolian gerbil. To be noted: for # of Neurons/Field: 7 days after 4-5 min carotid occlusion. As to the method: This assay was used to determine the extent of protection afforded by compound of the invention to neural brain cells subjected to ischemic conditions. Male Mongolian gerbils, 50-70 gm, were used as subjects. Compound No. 7 (30 mg/kg) was injected j.p. 30 minutes prior to carotid occlusion into 6 gerbils […]. In preparation for surgical procedures, the animals were lightly anesthetized with methoxyflurane and placed upside down on a heated pad with their snout within a nosecone. A 70:30 mixture of nitrous oxide and oxygen containing 0.5% halothane was circulated through the nosecone to provide continuous anesthesia throughout the surgical procedure. A midline incision was made in the neck and the carotid arteries were exposed. A length of suture thread was placed under each carotid. The thread was then tightened around each carotid and pressure applied to the thread to insure flow was occluded. Flow was occluded for 4-5 minutes and then the thread was removed. The carotids were visually inspected to confirm that reflow had occurred. The wound was then closed with autoclips and the gerbils allowed to recover. Following surgery, the gerbils were kept alive for 7 days. They were anesthetized with 100 mg/kg sodium pentobarbital and perfused transcardially with saline (with heparin) followed by buffered formalin. The brain was removed, trimmed and prepared for histological processing. Sections (10 microns) were stained with thionin. […] Quantification of the resulting lesion is made by counting the pyramidal cell somata in a 0.5 mm length of CAl of the hippocampus on the section corresponding to P 1.7 mm in the gerbil brain atlas.
Normal cell count in this region of the hippocampus in unoperated gerbils is 146±2. The effects of compound of Ex. #7 were assessed by comparing the number of neural cells found in the hippocampus of subjects treated with Ex. #7 compound with the cell number found in the appropriate control groups. […]

Data set [3] is described as follows: Motor impairment, inverted screen test.
Protocol: Naive male CD-1 mice (20-30 grams body weight) from Charles River Laboratories, Portage Mich. served as subjects. The mice had ad libitum access to food and water prior to testing and were maintained on a 12 hour light/12 hour dark schedule with testing during the light portion of the cycle. The mice were tested for motor impairment by use of the inverted screen test approximately 5 minutes prior to anticonvulsant testing. […] Mice were placed on 13×13 cm pieces of #4 wire mesh screen which were mounted horizontally. The screens were then slowly inverted. […] PG-Tween is a 1:1 mixture of propylene glycol and Tween 80. […] There were 10 mice in each treatment group.

Take `O=C(O)c1cn2c(CP(=O)(O)O)cccc2n1` [Example 7, 5-(phosphonomethyl)imidazo[1,2-a]pyridine-2-carboxylic acid]: the Ki in data set [1] worked out at 2.4 µM. In addition, the “# of Neurons/Field” value in data set [2] (300 mg/kg, control 32.8, P < 0.05) is on record as 53.0; in data set [2] (500 mg/kg, control 17.0, p < 0.0001), 112.6. In data set [2] (vs control, Mann-Whitney U test), the cell loss result is given as “significantly reduced”. The “Exhibiting Motor Impairments (% of Mice)” value in data set [3] (10 mg/kg s.c.) is 30%; in data set [3] (32 mg/kg s.c.) it was 50%; in data set [3] (56 mg/kg s.c.), 70%; in data set [3] (100 mg/kg s.c.) it was 90%. This compound returned a TD50 at 0.5 h in data set [3] (mouse, inverted screen test, sc) of 24.6 mg/kg. In addition, the “impaired motor function (in words)” value in data set [3] (s.c.) is “impaired motor function in a similar dose range”.
